Assay results reported in PMC6886403, “Structure-Based and Molecular Modeling Studies for the Discovery of Cyclic Imides as Reversible Cruzain Inhibitors With Potent Anti-Trypanosoma cruzi Activity” (Frontiers in Chemistry, 2019).
Like-named read-outs stand apart in the source and are kept apart here.

Key:
[1] = system: T. cruzi intracellular amastigotes; assay: T. cruzi intracellular amastigote assay (Tulahuen lacZ strain, CPRG readout); type: cell-based, Trypanosoma cruzi; conditions: for IC50: Trypanosoma cruzi, read-out: IC50 T. cruzi
Experimental: In vitro assays against T. cruzi were performed as described previously (Ferreira et al., [2014]). The T. cruzi Tulahuen strain, which expresses the E. coli β-galactosidase gene lacZ (Buckner et al., [1996]), was provided by Frederick S. Buckner (University of Washington, Seattle, WA). Stock solutions of the synthesized compounds were prepared in 100% DMSO. Epimastigotes were grown in liver infusion tryptone (LIT) supplemented with 10% fetal calf serum (FCS), penicillin and streptomycin (28°C). Metacyclogenesis from epimastigotes to trypomastigotes was induced by incubation of the epimastigotes in Grace's insect medium (Sigma-Aldrich, St. Louis, MO) supplemented with 10% FCS (28°C). HFF-1 human fibroblasts were seeded at 2 × 10^3/well (80 μL) in 96-well tissue culture plates in RPMI 1640 without phenol red supplemented with 10% FCS and incubated overnight (37°C, 5% CO2). Next, trypomastigotes were added at 1.0 × 10^4/well (20 μL), and the plates were incubated (37°C, 5% CO2). After 24 h, 3-fold serial dilutions (50 μL) of the synthesized compounds were added at concentrations ranging from 0.1 to 100 μM, and the plates were incubated (37°C, 5% CO2). Each compound concentration was evaluated in triplicate. All plates included BZ (Sigma-Aldrich) as a positive control and untreated wells (100% growth) as a negative control. After 120 h, 50 μL of chlorophenol red β-D-galactopyranoside (CPRG, Sigma-Aldrich) and IGEPAL CA-630 (Sigma-Aldrich) (0.1%) was added to each well. The absorbance was measured at 570 nm in an automated microplate reader, and the data were transferred to SigmaPlot 10.0 (Systat Software Inc.) for IC50 value calculation.

[2] = Cytotoxicity in HFF-1 cells (MTS tetrazolium assay); type: cell-based; conditions: human, HFF-1 fibroblasts, mean ± SD of two independent assays
Experimental: (§1) The cytotoxicities of the compounds against HFF-1 fibroblasts and HepG2 hepatocytes were evaluated using the MTS tetrazolium assay (Promega, Madison, WI) (Barltrop et al., [1991]). HFF-1 fibroblasts were seeded at 2 × 10^3/well in 96-well culture plates in RPMI 1640 without phenol red supplemented with 10% FCS and incubated overnight (37°C, 5% CO2). HepG2 hepatocytes were seeded at 6 × 10^3/well in 96-well culture plates in DMEM (Cultilab, Campinas SP) supplemented with 10% FCS and incubated overnight (37°C, 5% CO2). The compounds were added in 3-fold serial dilutions, and the plates were incubated at 37°C with 5% CO2. Each compound concentration was evaluated in triplicate. All plates included doxorubicin (Sigma-Aldrich, St. Louis, MO) as a positive control and untreated wells (100% growth) as a negative control. After 72 h, 20 μL of MTS was added, and the plates were incubated for 4 h. The absorbance was measured at 490 nm in an automated microplate reader, and the data were transferred to SigmaPlot 10.0 (Systat Software Inc., Erkrath, Germany) for IC50 value calculation. The percent of nonviable cells was determined and compared to the negative control wells (100% growth).

cruzain = target: T1, cruzain (Trypanosoma cruzi, UniProt P25779); assay: Cruzain inhibition assay (cleavage of fluorogenic substrate Z-Phe-Arg-AMC); type: biochemical; conditions: for inhibition at 100 µM: at 100 μM inhibitor, mean of three measurements, read-out: Percent inhibition against cruzain; for IC50: mean ± SD of three individual experiments, at least six inhibitor concentrations in triplicate, 1.5 nM cruzain, 5.0 μM Z-Phe-Arg-AMC, pH 5.5
T1 construct: inferred from Ni-NTA purification of the pro-enzyme; made in house; host or cells: Escherichia coli (M15)
T1 sequence (P25779 123-337 limits assumed): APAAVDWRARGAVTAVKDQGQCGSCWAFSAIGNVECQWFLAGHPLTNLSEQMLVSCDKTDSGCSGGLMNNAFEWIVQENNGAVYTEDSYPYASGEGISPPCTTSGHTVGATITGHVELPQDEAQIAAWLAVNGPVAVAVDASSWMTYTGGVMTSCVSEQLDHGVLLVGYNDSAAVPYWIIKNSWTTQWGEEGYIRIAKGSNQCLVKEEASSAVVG
Experimental: The catalytic activity of cruzain was monitored by cleavage of the fluorogenic substrate Z-Phe-Arg-aminomethyl coumarin (Z-Phe-Arg-AMC) as previously described (Ferreira et al., [2014]). The enzyme kinetics assays were performed in 0.1 M sodium acetate buffer (pH 5.5) with 5 mM dithiothreitol (DTT) and 0.01% Triton X-100. […] The enzyme reaction was monitored for 5 min at 30°C in 96-well black flat bottom plates, and the activity was calculated based on the initial rates compared with a control (DMSO). Wavelengths of 355 nm for excitation and 460 nm for emission were used. IC50 values were independently determined by determining rate measurements for at least six inhibitor concentrations, each evaluated in triplicate. To determine the mechanism of inhibition, eight substrate concentrations and four inhibitor concentrations were used, each in triplicate. The mechanism of inhibition was determined by Lineweaver-Burk plots. SigmaPlot 10.0 (Systat Software Inc., Erkrath, Germany) was used to determine the IC50 values.

[3] = Cytotoxicity in HepG2 cells (MTS tetrazolium assay); type: cell-based; conditions: human, HepG2 hepatocytes, mean ± SD of two independent assays
Experimental: as §1

[4] = parameters: method as in Pérez-Molina and Molina, 2018; conditions: patients under treatment; ref Pérez-Molina and Molina, 2018; cited from earlier work
[5] = intracellular amastigotes, Tulahuen strain in HFF-1 fibroblasts, 120 h, mean ± SD of two experiments

Structure (SMILES) | IC50 [1, 5] | CC50 at 72 h [2] | mechanism of inhibition (cruzain; Lineweaver-Burk plots, eight substrate and four inhibitor concentrations) | inhibition at 100 µM (cruzain) | IC50 (cruzain) | CC50 at 72 h [3] | decrease in potency against cruzain relative to 3a (cruzain; less active than 3a) | increase in potency against cruzain (cruzain; 10f compared with 10c/10e) | trypanocidal activity relative to BZ ([1]; higher than that of BZ) | increase in potency against cruzain relative to 3a (cruzain; more active than 3a) | activity against T. cruzi (in words) ([1]; intracellular amastigotes) | IC50 ([1]; TULAHUEN, HFF-1, 120 h) | patients with severe adverse effects [4] | activity against cruzain (in words) (cruzain)
CC(C)C[C@@H](C(=O)OCC(=O)Nc1ccc2ccccc2c1)N1C(=O)C2CC=CCC2C1=O (stereo partly drawn) [3i, 2-(naphthalen-2-ylamino)-2-oxoethyl (2S)-2-(1,3-dioxo-1,3,3a,4,7,7a-hexahydro-2H-isoindol-2-yl)-4-methylpentanoate] | 32.8 ± 4.9 µM | > 100 µM | competitive | 79% | 2.1 ± 1.3 µM | 45 ± 8 µM |  |  |  |  |  |  |  | 
CC(C)CC(C(=O)OCC(=O)Nc1ccc(N(C)C(=O)OC(C)(C)C)cc1)N1C(=O)C2CC=CCC2C1=O (stereo not shown) [3k] | 3.9 ± 0.9 µM | > 100 µM |  | 7% |  | > 64 µM |  |  |  |  |  |  |  | 
COc1ccc(NC(=O)COC(=O)[C@H](CC(C)C)N2C(=O)C=CC2=O)cc1Cl [10c, 2-((3-chloro-4-methoxyphenyl)amino)-2-oxoethyl (S)-2-(2,5-dioxo-2,5-dihydro-1H-pyrrol-1-yl)-4-methylpentanoate] | 0.9 ± 0.3 µM | 12 ± 1 µM |  | 95% | 2.3 ± 1 µM | 33 ± 5 µM |  |  |  |  |  |  |  | 
COc1ccc(NC(=O)COC(=O)[C@H](CC(C)C)N2C(=O)CCC2=O)cc1Cl [10d, 2-((3-chloro-4-methoxyphenyl)amino)-2-oxoethyl (S)-2-(2,5-dioxopyrrolidin-1-yl)-4-methylpentanoate] | 18.5 ± 3.1 µM | > 100 µM |  | 88% | 12 ± 1 µM | > 64 µM | 6 fold |  |  |  |  |  |  | 
COc1ccc(NC(=O)COC(=O)[C@H](CC(C)C)N2C(=O)C=C(C)C2=O)cc1Cl [10e, 2-((3-chloro-4-methoxyphenyl)amino)-2-oxoethyl (S)-4-methyl-2-(3-methyl-2,5-dioxo-2,5-dihydro-1H-pyrrol-1-yl)pentanoate] | 1.2 ± 0.3 µM | 4.8 ± 0.5 µM |  | 94% | 2.5 ± 0.6 µM | 5 ± 1 µM |  |  |  |  |  |  |  | 
COc1ccc(NC(=O)COC(=O)[C@H](CC(C)C)N2C(=O)C(Cl)=C(Cl)C2=O)cc1Cl [10f, 2-((3-chloro-4-methoxyphenyl)amino)-2-oxoethyl (S)-2-(3,4-dichloro-2,5-dioxo-2,5-dihydro-1H-pyrrol-1-yl)-4-methylpentanoate] | 2 ± 0.7 µM | 33 ± 9 µM |  | 100% |  | > 64 µM |  | 6 fold |  |  |  |  |  | 
COc1ccc(NC(=O)COC(=O)[C@H](Cc2ccccc2)N2C(=O)C=CC2=O)cc1Cl [10j, 2-((3-chloro-4-methoxyphenyl)amino)-2-oxoethyl (S)-2-(2,5-dioxo-2,5-dihydro-1H-pyrrol-1-yl)-3-phenylpropanoate] | 1 ± 0.3 µM | 15.7 ± 0.8 µM |  | 97% | 0.6 ± 0.1 µM | 67 ± 8 µM |  |  | 3 fold | 4 fold |  |  |  | 
COc1ccc(NC(=O)COC(=O)[C@H](CC(C)C)N2CCCCC2)cc1Cl [10l, 2-((3-chloro-4-methoxyphenyl)amino)-2-oxoethyl (S)-4-methyl-2-(piperidin-1-yl)pentanoate] | 11.6 ± 2.4 µM | > 100 µM |  | 10% |  | > 64 µM |  |  |  |  | moderately active |  |  | 
COc1ccc(NC(=O)COC(=O)[C@H](CC(C)C)N2CCOCC2)cc1Cl [10m, 2-((3-chloro-4-methoxyphenyl)amino)-2-oxoethyl (S)-4-methyl-2-morpholinopentanoate] | 1.8 ± 0.4 µM | > 100 µM |  | 14% |  | > 64 µM |  |  |  |  | remarkably active |  |  | 
COc1ccc(NC(=O)COC(=O)[C@H](CC(C)C)N2CCN(C(=O)OC(C)(C)C)CC2)cc1Cl [10n, tert-butyl (S)-4-(1-(2-((3-chloro-4-methoxyphenyl)amino)-2-oxoethoxy)-4-methyl-1-oxopentan-2-yl)piperazine-1-carboxylate] | 1.6 ± 0.5 µM | 32 ± 5 µM |  | 8% |  | 27 ± 2 µM |  |  |  |  | remarkably active |  |  | 
COc1ccc(NC(=O)COC(=O)[C@H](CC(C)C)N2CCNCC2)cc1Cl.Cl [10o, 2-((3-chloro-4-methoxyphenyl)amino)-2-oxoethyl (S)-4-methyl-2-(piperazin-1-yl)pentanoate hydrochloride] | 1.7 ± 0.5 µM | 32 ± 3 µM |  | 35% |  | 52 ± 7 µM |  |  |  |  | remarkably active |  |  | 
O=C(Cn1ccnc1[N+](=O)[O-])NCc1ccccc1 [BZ, benznidazole, reference compound] |  | > 100 µM |  |  |  | > 64 µM |  |  |  |  |  | 3 ± 0.6 µM | up to 40% | 
COc1cccc2c1C(=O)c1c(O)c3c(c(O)c1C2=O)C[C@@](O)(C(=O)CO)C[C@@H]3O[C@H]1C[C@H](N)[C@H](O)[C@H](C)O1 [Doxorubicin, doxorubicin, reference compound] |  | 0.21 ± 0.09 µM |  |  |  | 0.4 ± 0.1 µM |  |  |  |  |  |  |  | 
COc1ccc(NCCOC(=O)C(CC(C)C)N2C(=O)C3CC=CCC3C2=O)cc1Cl (stereo not shown) [compound 7, 2-((3-chloro-4-methoxyphenyl)amino)ethyl 2-(1,3-dioxo-1,3,3a,4,7,7a-hexahydro-2H-isoindol-2-yl)-4-methylpentanoate] | 1.5 ± 0.4 µM | > 100 µM |  | 11% |  | 63 ± 8 µM |  |  |  |  | active |  |  | inactive
